This passage reports IC50 results from patent US11332459B2 (TEIJIN PHARMA LIMITED, priority 2017, dated 2022).

The target of the test is T1, human TRPC6 (Homo sapiens, UniProt Q9Y210).
T1 construct: expressed in transfected cells
T1 sequence (Q9Y210 1-931): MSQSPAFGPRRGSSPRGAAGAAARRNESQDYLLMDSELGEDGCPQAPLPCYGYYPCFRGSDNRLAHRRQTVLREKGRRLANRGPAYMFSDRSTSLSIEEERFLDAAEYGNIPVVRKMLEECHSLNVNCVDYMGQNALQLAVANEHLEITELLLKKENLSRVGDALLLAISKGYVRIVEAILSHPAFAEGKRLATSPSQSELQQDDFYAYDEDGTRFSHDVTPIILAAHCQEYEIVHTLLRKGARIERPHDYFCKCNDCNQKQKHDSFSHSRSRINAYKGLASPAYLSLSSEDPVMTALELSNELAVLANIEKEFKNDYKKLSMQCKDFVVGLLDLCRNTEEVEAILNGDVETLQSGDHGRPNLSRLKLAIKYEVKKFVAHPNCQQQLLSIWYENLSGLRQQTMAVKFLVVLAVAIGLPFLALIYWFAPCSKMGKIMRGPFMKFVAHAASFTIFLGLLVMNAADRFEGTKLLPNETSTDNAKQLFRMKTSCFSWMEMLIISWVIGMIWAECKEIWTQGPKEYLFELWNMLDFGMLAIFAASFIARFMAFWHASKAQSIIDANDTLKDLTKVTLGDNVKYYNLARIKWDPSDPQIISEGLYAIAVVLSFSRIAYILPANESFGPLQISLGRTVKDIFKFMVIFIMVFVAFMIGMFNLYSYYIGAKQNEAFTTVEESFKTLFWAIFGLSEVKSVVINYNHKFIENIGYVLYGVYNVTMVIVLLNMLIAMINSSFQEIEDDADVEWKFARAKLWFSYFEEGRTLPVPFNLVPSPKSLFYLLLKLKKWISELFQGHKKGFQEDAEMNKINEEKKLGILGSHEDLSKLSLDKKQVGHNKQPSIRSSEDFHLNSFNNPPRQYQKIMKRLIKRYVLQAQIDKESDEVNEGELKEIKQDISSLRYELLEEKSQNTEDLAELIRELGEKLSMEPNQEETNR
The test can be described thus: TRPC6 calcium flux assay (FLIPR, OAG-stimulated calcium influx). The test is classed as cell-based. The conditions noted are these: HEK293 cells stably transfected with human TRPC6, read-out: hTRPC6 Potency. A digest of the protocol: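 IC50 derived by plotting background-corrected peak fluorescence (180 s window, normalized to OAG-triggered signal vs buffer) against dose. Stable human TRPC6 HEK293 line was dye-loaded, exposed to compound 25 min, then challenged with 50 uM final OAG in 2 mM Ca2+ HEPES buffer pH 7.2, 0.5% DMSO.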
(In general: Calcium flux is commonly read through the fluorescence of an indicator in the cells.)

SMILES strings stand for the structures.

Consider `CC(c1ccncc1)N(C)C(=O)Cn1c(N2CC[C@@H](F)[C@H](N)C2)nc2cc(F)c(F)cc21` (stereo partly drawn) [Example 613, 2-(2-((3R,4R)-3-amino-4-fluoropiperidin-1-yl)-5,6-difluoro-1H-benzo[d]imidazol-1-yl)-N-methyl-N-(1-(pyridin-4-yl)ethyl)acetamide], for which the IC50 turned out to be 0.0242 µM. On to `CN(CC#N)C(=O)Cn1c(N2CC[C@@H](F)[C@H](N)C2)nc2cc(F)c(F)cc21` [Example 615, 2-(2-((3R,4R)-3-amino-4-fluoropiperidin-1-yl)-5,6-difluoro-1H-benzo[d]imidazol-1-yl)-N-(cyanomethyl)-N-methylacetamide], for which the IC50 worked out at 0.0285 µM.

With `CCCN(C)C(=O)Cn1c(N2CC[C@@H](F)[C@H](N)C2)nc2cc(F)c(F)cc21` [Example 616, 2-(2-((3R,4R)-3-amino-4-fluoropiperidin-1-yl)-5,6-difluoro-1H-benzo[d]imidazol-1-yl)-N-methyl-N-propylacetamide], the IC50 was 0.0323 µM. The same measure for `N[C@@H]1CN(c2nc3cc(F)c(F)cc3n2CC(=O)N(CCO)C2CC2)CC[C@H]1F` [Example 617, 2-(2-((3R,4R)-3-amino-4-fluoropiperidin-1-yl)-5,6-difluoro-1H-benzo[d]imidazol-1-yl)-N-cyclopropyl-N-(2-hydroxyethyl)acetamide]: 0.0332 µM. Consider `N#CC1(F)CCN(C(=O)Cn2c(N3CC[C@@H](F)[C@H](N)C3)nc3cc(F)c(F)cc32)C1` (stereo partly drawn) [Example 618, 1-(2-(2-((3R,4R)-3-amino-4-fluoropiperidin-1-yl)-5,6-difluoro-1H-benzo[d]imidazol-1-yl)acetyl)-3-fluoropyrrolidine-3-carbonitrile], for which the IC50 is 0.0483 µM. `N[C@@H]1CN(c2nc3cc(F)c(F)cc3n2CC(=O)N2CC3CC2CO3)CC[C@H]1F` (stereo partly drawn) [Example 619, 2-(2-((3R,4R)-3-amino-4-fluoropiperidin-1-yl)-5,6-difluoro-1H-benzo[d]imidazol-1-yl)-1-(2-oxa-5-azabicyclo[2.2.1]heptan-5-yl)ethanone]: the IC50 stood at 0.0574 µM.

Consider `CN(CCC(F)(F)F)C(=O)Cn1c(N2CC[C@@H](F)[C@H](N)C2)nc2cc(F)c(F)cc21` [Example 622, -(2-((3R,4R)-3-amino-4-fluoropiperidin-1-yl)-5,6-difluoro-1H-benzo[d]imidazol-1-yl)-N-methyl-N-(3,3,3-trifluoropropyl)acetamide], for which the IC50 was 0.0789 µM. Consider `N[C@@H]1CN(c2nc3cc(F)c(F)cc3n2CC(=O)N2C[C@@H]3[C@H](C2)C3(F)F)CC[C@H]1F` [Example 623, 2-(2-((3R,4R)-3-amino-4-fluoropiperidin-1-yl)-5,6-difluoro-1H-benzo[d]imidazol-1-yl)-1-((1R,5S)-6,6-difluoro-3-azabicyclo[3.1.0]hexan-3-yl)ethanone], for which the IC50 was 0.089 µM. Consider `N[C@@H]1CN(c2nc3cc(F)c(F)cc3n2CC(=O)N2CCN(c3ncccn3)CC2)CC[C@H]1F` [Example 624, 2-(2-((3R,4R)-3-amino-4-fluoropiperidin-1-yl)-5,6-difluoro-1H-benzo[d]imidazol-1-yl)-1-(4-(pyrimidin-2-yl)piperazin-1-yl)ethanone], for which the IC50 turned out to be 0.102 µM. Then `CC(C)C1CCN1C(=O)Cn1c(N2CC[C@@H](F)[C@H](N)C2)nc2cc(F)c(F)cc21` (stereo partly drawn) [Example 625, 2-(2-((3R,4R)-3-amino-4-fluoropiperidin-1-yl)-5,6-difluoro-1H-benzo[d]imidazol-1-yl)-1-(2-isopropylazetidin-1-yl)ethanone], with 0.105 µM; and `N[C@@H]1CN(c2nc3cc(F)c(F)cc3n2CC(=O)N2CCC(OC(F)F)C2)CC[C@H]1F` (stereo partly drawn) [Example 626, 2-(2-((3R,4R)-3-amino-4-fluoropiperidin-1-yl)-5,6-difluoro-1H-benzo[d]imidazol-1-yl)-1-(3-(difluoromethoxy)pyrrolidin-1-yl)ethanone], with 0.117 µM; and `CC1(C#N)CCN(C(=O)Cn2c(N3CC[C@@H](F)[C@H](N)C3)nc3cc(F)c(F)cc32)CC1` [Example 629, 1-(2-(2-((3R,4R)-3-amino-4-fluoropiperidin-1-yl)-5,6-difluoro-1H-benzo[d]imidazol-1-yl)acetyl)-4-methylpiperidine-4-carbonitrile], with 0.158 µM. The same measure for `N[C@@H]1CN(c2nc3cc(F)c(F)cc3n2CC(=O)N2CCCc3cccnc32)CC[C@H]1F` [Example 630, 2-(2-((3R,4R)-3-amino-4-fluoropiperidin-1-yl)-5,6-difluoro-1H-benzo[d]imidazol-1-yl)-1-(3,4-dihydro-1,8-naphthyridin-1(2H)-yl)ethanone]: 0.174 µM; for `N[C@@H]1CN(c2nc3cc(F)c(F)cc3n2CC(=O)N(CC(F)F)C2CC2)CC[C@H]1F` [Example 631, 2-(2-((3R,4R)-3-amino-4-fluoropiperidin-1-yl)-5,6-difluoro-1H-benzo[d]imidazol-1-yl)-N-cyclopropyl-N-(2,2-difluoroethyl)acetamide]: 0.225 µM; for `N[C@@H]1CN(c2nc3cc(F)c(F)cc3n2CC(=O)N2Cc3cccnc3C2)CC[C@H]1F` [Example 632, 2-(2-((3R,4R)-3-amino-4-fluoropiperidin-1-yl)-5,6-difluoro-1H-benzo[d]imidazol-1-yl)-1-(5H-pyrrolo[3,4-b]pyridin-6(7H)-yl)ethanone]: 0.23 µM.

With `N#C[C@H]1CCCN1C(=O)Cn1c(N2CC[C@@H](F)[C@H](N)C2)nc2cc(F)c(F)cc21` [Example 636, (R)-1-(2-(2-((3R,4R)-3-amino-4-fluoropiperidin-1-yl)-5,6-difluoro-1H-benzo[d]imidazol-1-yl)acetyl)pyrrolidine-2-carbonitrile], the IC50 amounted to 0.326 µM. Then `CN(C(=O)Cn1c(N2CC[C@@H](F)[C@H](N)C2)nc2cc(F)c(F)cc21)[C@H]1CC[C@H](O)CC1` [Example 637, 2-(2-((3R,4R)-3-amino-4-fluoropiperidin-1-yl)-5,6-difluoro-1H-benzo[d]imidazol-1-yl)-N-((1r,4R)-4-hydroxycyclohexyl)-N-methylacetamide], with 0.341 µM. Regarding `CC(c1ccccn1)N(C)C(=O)Cn1c(N2CC[C@@H](F)[C@H](N)C2)nc2cc(F)c(F)cc21` (stereo partly drawn) [Example 638, 2-(2-((3R,4R)-3-amino-4-fluoropiperidin-1-yl)-5,6-difluoro-1H-benzo[d]imidazol-1-yl)-N-methyi-N-((S)-1-(pyridin-2-yl)ethyl)acetamide], the IC50 was 0.425 µM.

Turning to `N[C@@H]1CN(c2nc3cc(F)c(F)cc3n2CC(=O)N2CCCC3COCCC32)CC[C@H]1F` (stereo partly drawn) [Example 639, 2-(2-((3R,4R)-3-amino-4-fluoropiperidin-1-yl)-5,6-difluoro-1H-benzo[d]imidazol-1-yl)-1-(octahydro-1H-pyrano[4,3-b]pyridin-1-yl)ethanone], the IC50 is 0.657 µM.

Consider `N[C@@H]1CN(c2nc3cc(F)c(F)cc3n2CC(=O)N2CCC(O)CC2)CC[C@H]1F` [Example 640, 2-(2-((3R,4R)-3-amino-4-fluoropiperidin-1-yl)-5,6-difluoro-1H-benzo[d]imidazol-1-yl)-1-(4-hydroxypiperidin-1-yl)ethanone], for which the IC50 is 0.809 µM. Then `N[C@@H]1CN(c2nc3cc(F)c(F)cc3n2CC(=O)N2CC(n3cncn3)C2)CC[C@H]1F` [Example 641, 1-(3-(1H-1,2,4-triazol-1-yl)azetidin-1-yl)-2-(2-((3R,4R)-3-amino-4-fluoropiperidin-1-yl)-5,6-difluoro-1H-benzo[d]imidazol-1-yl)ethanone], with 1.28 µM; and `N[C@@H]1CN(c2nc3cc(F)c(F)cc3n2CC(=O)N2CCN3C(=O)NCC3C2)CC[C@H]1F` (stereo partly drawn) [Example 642, 7-(2-(2-((3R,4R)-3-amino-4-fluoropiperidin-1-yl)-5,6-difluoro-1H-benzo[d]imidazol-1-yl)acetyl)hexahydroimidazo [1,5-a]pyrazin-3(2H)-one], with 1.65 µM.

As for `N#CCCN(CC1CCOC1)C(=O)Cn1c(N2CC[C@@H](F)[C@H](N)C2)nc2cc(F)c(F)cc21` (stereo partly drawn) [Example 643, 2-(2-((3R,4R)-3-amino-4-fluoropiperidin-1-yl)-5,6-difluoro-1H-benzo[d]imidazol-1-yl)-N-(2-cyanoethyl)-N-((tetrahydrofuran-3-yl)methyl)acetamide], the IC50 was 1.82 µM. Then `CNC(=O)C1CN(C(=O)Cn2c(N3CC[C@@H](F)[C@H](N)C3)nc3cc(F)c(F)cc32)CCO1` (stereo partly drawn) [Example 644, 4-(2-(2-((3R,4R)-3-amino-4-fluoropiperidin-1-yl)-5,6-difluoro-1H-benzo[d]imidazol-1-yl)acetyl)-N-methylmorpholine-2-carboxamide], with 1.91 µM.
